Laboratory results from the kinase profiling compilation of Christmann-Franck et al. (2016).

Assays:
Test in all cases: KINOMEscan competition binding
Details in all cases: compound 10.0 µM
FGFR4 (human) = FGFR4 (human) (UniProt P22455)
CAMK1D (human) = CAMK1D (human) (UniProt Q8IU85)
EPHB4 (human) = EPHB4 (human) (UniProt P54760)
MAP4K2 (human) = MAP4K2 (human) (UniProt Q12851)
PRKD3 (human) = PRKD3 (human) (UniProt O94806)
NEK7 (human) = NEK7 (human) (UniProt Q8TDX7)
ANKK1 (human) = ANKK1 (human) (UniProt Q8NFD2)
DYRK1B (human) = DYRK1B (human) (UniProt Q9Y463)
[1] = target: JAK3 JH1 catalytic (human) (UniProt P52333)
CLK4 (human) = CLK4 (human) (UniProt Q9HAZ1)
MAPK11 (human) = MAPK11 (human) (UniProt Q15759)
NUAK2 (human) = NUAK2 (human) (UniProt Q9H093)
ULK2 (human) = ULK2 (human) (UniProt Q8IYT8)
MAPK8 (human) = MAPK8 (human) (UniProt P45983)
NTRK1 (human) = NTRK1 (human) (UniProt P04629)
RIPK4 (human) = RIPK4 (human) (UniProt P57078)
TESK1 (human) = TESK1 (human) (UniProt Q15569)
AURKC (human) = AURKC (human) (UniProt Q9UQB9)
ERBB2 (human) = ERBB2 (human) (UniProt P04626)
MAP2K2 (human) = MAP2K2 (human) (UniProt P36507)
HCK (human) = HCK (human) (UniProt P08631)
STK10 (human) = STK10 (human) (UniProt O94804)
[2] = tested on: KIT (human), P10721 [V559D/V654A]
CHEK2 (human) = CHEK2 (human) (UniProt O96017)
TEK (human) = TEK (human) (UniProt Q02763)
LTK (human) = LTK (human) (UniProt P29376)
YES1 (human) = YES1 (human) (UniProt P07947)
CDC2L2 (human) = CDC2L2 (human) (UniProt Q9UQ88)
TIE1 (human) = TIE1 (human) (UniProt P35590)
MAPK10 (human) = MAPK10 (human) (UniProt P53779)
RPS6KA5 KD2 (human) = RPS6KA5 KD2 (human) (UniProt O75582)
CSF1R (human) = CSF1R (human) (UniProt P07333)
BLK (human) = BLK (human) (UniProt P51451)
AKT2 (human) = AKT2 (human) (UniProt P31751)

FGFR4 (human), sequence (P22455 whole entry, looked up): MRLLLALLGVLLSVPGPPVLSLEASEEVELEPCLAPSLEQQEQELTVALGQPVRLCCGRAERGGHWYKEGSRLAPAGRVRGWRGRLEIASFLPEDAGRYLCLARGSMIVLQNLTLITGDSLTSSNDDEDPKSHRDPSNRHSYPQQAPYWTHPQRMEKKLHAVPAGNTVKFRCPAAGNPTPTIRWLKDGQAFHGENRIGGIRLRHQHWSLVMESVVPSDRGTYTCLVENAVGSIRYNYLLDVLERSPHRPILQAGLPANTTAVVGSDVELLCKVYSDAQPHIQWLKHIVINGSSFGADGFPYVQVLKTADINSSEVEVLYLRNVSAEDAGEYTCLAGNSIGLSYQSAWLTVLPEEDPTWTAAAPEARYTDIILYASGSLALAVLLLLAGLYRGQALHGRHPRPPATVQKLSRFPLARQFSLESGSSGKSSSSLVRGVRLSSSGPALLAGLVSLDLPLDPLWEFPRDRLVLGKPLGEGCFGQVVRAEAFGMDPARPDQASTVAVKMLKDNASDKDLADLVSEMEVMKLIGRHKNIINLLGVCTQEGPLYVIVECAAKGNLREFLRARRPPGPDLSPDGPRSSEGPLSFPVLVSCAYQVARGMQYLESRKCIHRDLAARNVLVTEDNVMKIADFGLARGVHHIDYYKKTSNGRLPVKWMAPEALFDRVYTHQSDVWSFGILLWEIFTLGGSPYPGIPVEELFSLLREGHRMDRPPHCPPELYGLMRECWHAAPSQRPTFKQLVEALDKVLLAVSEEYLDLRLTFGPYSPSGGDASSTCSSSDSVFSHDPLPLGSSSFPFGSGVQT
JAK3 JH1 catalytic (human), sequence (P52333 whole entry, looked up): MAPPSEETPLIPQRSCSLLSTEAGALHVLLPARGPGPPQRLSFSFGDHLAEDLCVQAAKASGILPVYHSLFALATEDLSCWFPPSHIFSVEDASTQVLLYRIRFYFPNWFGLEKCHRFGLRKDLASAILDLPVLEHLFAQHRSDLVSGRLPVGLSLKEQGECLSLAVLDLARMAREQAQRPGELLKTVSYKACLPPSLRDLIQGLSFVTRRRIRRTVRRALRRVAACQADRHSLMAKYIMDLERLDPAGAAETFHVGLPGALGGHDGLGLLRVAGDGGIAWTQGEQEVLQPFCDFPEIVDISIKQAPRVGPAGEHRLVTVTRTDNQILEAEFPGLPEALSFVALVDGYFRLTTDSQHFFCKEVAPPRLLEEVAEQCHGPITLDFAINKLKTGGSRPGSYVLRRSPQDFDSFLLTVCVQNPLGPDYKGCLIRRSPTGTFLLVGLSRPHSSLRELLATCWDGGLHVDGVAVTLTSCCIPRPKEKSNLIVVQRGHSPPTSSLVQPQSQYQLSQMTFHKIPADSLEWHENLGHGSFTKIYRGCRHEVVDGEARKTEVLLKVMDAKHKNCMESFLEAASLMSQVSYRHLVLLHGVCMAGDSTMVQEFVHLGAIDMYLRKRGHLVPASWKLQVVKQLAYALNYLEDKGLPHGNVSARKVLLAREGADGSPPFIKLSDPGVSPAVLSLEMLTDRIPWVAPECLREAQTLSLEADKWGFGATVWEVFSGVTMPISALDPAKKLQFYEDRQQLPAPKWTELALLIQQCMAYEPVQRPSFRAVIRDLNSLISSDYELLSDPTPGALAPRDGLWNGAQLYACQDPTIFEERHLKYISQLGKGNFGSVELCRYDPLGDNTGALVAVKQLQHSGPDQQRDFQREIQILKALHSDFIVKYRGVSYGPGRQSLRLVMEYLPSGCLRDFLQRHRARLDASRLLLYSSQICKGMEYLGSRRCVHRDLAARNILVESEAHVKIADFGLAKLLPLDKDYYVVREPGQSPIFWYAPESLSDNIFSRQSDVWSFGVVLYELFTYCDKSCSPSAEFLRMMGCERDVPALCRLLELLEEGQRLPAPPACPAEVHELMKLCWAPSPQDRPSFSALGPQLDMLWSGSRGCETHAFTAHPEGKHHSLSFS
CSF1R (human), sequence (P07333 whole entry, looked up): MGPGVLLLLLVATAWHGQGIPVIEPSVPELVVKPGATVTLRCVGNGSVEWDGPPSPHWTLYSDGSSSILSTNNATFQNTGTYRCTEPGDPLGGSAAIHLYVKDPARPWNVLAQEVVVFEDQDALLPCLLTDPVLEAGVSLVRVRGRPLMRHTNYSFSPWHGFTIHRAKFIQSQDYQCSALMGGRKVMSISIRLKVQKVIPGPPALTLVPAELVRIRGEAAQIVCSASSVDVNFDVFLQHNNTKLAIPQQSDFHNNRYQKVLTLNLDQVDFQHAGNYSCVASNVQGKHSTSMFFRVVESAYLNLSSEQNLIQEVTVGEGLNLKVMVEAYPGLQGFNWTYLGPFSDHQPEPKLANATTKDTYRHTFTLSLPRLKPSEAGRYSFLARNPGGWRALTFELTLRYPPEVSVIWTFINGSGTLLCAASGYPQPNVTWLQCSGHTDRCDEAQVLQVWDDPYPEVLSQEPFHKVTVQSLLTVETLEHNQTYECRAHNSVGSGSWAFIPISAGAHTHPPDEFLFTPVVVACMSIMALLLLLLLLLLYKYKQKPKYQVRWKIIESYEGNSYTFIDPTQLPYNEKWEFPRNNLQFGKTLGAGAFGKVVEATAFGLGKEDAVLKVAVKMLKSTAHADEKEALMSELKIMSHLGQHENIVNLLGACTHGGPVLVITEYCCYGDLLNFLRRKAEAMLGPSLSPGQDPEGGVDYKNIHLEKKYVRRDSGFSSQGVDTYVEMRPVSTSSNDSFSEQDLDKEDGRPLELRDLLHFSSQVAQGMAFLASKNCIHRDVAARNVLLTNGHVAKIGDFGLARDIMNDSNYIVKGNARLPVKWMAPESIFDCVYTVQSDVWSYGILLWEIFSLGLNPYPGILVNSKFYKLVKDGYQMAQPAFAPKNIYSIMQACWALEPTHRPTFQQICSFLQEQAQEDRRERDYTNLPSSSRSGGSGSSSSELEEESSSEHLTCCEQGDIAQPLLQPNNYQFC
CDC2L2 (human), sequence (Q9UQ88 whole entry, looked up): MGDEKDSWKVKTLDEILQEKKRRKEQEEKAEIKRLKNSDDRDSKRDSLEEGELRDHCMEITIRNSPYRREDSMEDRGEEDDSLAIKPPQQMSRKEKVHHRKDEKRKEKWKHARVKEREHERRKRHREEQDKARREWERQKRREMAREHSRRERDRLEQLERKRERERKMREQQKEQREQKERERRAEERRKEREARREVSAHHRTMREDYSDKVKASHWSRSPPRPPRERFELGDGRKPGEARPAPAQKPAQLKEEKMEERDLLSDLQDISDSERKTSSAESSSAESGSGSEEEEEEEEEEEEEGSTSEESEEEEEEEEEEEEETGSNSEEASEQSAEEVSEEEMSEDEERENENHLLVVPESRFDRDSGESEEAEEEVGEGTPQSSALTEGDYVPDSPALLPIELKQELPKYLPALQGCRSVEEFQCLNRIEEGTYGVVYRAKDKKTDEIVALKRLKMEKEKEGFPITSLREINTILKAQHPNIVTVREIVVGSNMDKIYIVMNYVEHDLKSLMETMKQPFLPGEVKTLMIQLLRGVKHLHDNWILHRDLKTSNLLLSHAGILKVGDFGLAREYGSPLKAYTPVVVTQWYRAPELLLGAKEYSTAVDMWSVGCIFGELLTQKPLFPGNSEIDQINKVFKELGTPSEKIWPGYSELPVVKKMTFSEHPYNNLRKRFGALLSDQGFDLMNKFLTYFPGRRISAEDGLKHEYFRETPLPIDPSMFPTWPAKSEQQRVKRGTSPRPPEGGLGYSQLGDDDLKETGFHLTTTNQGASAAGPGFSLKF
DYRK1B (human), sequence (Q9Y463 whole entry, looked up): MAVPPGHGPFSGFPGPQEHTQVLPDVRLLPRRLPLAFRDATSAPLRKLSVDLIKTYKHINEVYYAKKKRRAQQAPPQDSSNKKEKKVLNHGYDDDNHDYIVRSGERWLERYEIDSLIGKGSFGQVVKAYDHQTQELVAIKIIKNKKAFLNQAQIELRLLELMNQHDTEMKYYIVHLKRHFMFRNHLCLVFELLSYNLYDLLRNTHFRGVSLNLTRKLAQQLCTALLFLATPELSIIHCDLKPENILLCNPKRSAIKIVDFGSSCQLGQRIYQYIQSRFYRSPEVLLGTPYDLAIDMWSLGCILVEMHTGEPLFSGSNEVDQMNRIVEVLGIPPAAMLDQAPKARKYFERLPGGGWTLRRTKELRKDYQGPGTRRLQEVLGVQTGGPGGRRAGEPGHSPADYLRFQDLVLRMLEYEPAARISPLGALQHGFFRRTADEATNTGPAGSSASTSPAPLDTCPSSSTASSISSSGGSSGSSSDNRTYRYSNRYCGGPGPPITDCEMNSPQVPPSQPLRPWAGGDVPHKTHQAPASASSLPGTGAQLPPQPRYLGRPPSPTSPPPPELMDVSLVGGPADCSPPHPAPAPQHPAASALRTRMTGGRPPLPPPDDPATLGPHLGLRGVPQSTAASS
MAPK8 (human), sequence (P45983 whole entry, looked up): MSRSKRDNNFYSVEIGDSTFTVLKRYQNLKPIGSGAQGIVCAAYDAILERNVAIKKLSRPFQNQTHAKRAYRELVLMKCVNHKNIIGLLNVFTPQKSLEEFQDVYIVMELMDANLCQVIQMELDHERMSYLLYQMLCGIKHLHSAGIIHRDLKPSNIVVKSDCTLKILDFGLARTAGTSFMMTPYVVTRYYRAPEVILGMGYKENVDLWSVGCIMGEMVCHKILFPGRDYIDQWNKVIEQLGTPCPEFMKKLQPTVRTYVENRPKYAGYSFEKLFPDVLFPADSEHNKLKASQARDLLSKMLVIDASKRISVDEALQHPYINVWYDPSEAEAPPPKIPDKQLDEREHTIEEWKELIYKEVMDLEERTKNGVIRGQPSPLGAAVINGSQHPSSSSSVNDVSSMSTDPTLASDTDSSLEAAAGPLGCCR
NEK7 (human), sequence (Q8TDX7 whole entry, looked up): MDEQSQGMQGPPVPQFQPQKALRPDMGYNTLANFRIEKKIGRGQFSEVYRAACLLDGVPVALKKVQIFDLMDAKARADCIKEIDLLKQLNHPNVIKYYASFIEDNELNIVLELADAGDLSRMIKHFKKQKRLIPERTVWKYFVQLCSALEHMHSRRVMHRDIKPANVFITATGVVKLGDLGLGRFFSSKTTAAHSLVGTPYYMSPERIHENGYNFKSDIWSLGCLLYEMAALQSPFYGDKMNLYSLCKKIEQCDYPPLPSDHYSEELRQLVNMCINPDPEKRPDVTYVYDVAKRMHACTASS

kinase still bound, per cent of control (CAMK1D (human)) | kinase still bound, per cent of control (EPHB4 (human)) | kinase still bound, per cent of control (PRKD3 (human)) | kinase still bound, per cent of control (NEK7 (human)) | kinase still bound, per cent of control (ANKK1 (human)) | kinase still bound, per cent of control (DYRK1B (human)) | kinase still bound, per cent of control [1] | kinase still bound, per cent of control (CLK4 (human)) | kinase still bound, per cent of control (MAPK11 (human)) | kinase still bound, per cent of control (NUAK2 (human)) | kinase still bound, per cent of control (MAPK8 (human)) | kinase still bound, per cent of control (NTRK1 (human)) | kinase still bound, per cent of control (TESK1 (human)) | kinase still bound, per cent of control (AURKC (human)) | kinase still bound, per cent of control (ERBB2 (human)) | kinase still bound, per cent of control (MAP2K2 (human)) | kinase still bound, per cent of control (HCK (human)) | kinase still bound, per cent of control (STK10 (human)) | kinase still bound, per cent of control [2] | kinase still bound, per cent of control (TEK (human)) | Compound | further results
100% | 100% | 100% | 100% | 100% | 8.8% | 1.8% | 0.35% | 100% | 0.4% | 7.3% | 0.75% | 30% | 0.65% | 100% | 5.2% | 11% | 0% | 100% | 1.8% | CNC(=O)c1ccc(Nc2cc(Nc3ccccc3S(=O)(=O)C(C)C)c3cc[nH]c3n2)nc1 | kinase still bound, per cent of control (FGFR4 (human)): 100%; kinase still bound, per cent of control (MAP4K2 (human)): 11%; kinase still bound, per cent of control (ULK2 (human)): 9.1%; kinase still bound, per cent of control (RIPK4 (human)): 100%; kinase still bound, per cent of control (BLK (human)): 0.55%; kinase still bound, per cent of control (CHEK2 (human)): 100%; kinase still bound, per cent of control (LTK (human)): 0%; kinase still bound, per cent of control (YES1 (human)): 1.6%; kinase still bound, per cent of control (CDC2L2 (human)): 100%; kinase still bound, per cent of control (AKT2 (human)): 100%; kinase still bound, per cent of control (TIE1 (human)): 0.2%; kinase still bound, per cent of control (MAPK10 (human)): 17%; kinase still bound, per cent of control (RPS6KA5 KD2 (human)): 100%; kinase still bound, per cent of control (CSF1R (human)): 30%
100% | 100% | 100% | 100% | 100% | 100% | 100% | 100% | 100% | 100% | 100% | 100% | 100% | 100% | 100% | 100% | 100% | 100% | 100% | 100% | CCN(CC)CCCCNc1ncc2cc(-c3cc(OC)cc(OC)c3)c(NC(=O)NC(C)(C)C)nc2n1 | kinase still bound, per cent of control (BLK (human)): 100%; kinase still bound, per cent of control (LTK (human)): 100%; kinase still bound, per cent of control (YES1 (human)): 100%; kinase still bound, per cent of control (CDC2L2 (human)): 100%; kinase still bound, per cent of control (AKT2 (human)): 100%; kinase still bound, per cent of control (TIE1 (human)): 12%; kinase still bound, per cent of control (MAPK10 (human)): 100%; kinase still bound, per cent of control (RPS6KA5 KD2 (human)): 100%; kinase still bound, per cent of control (CSF1R (human)): 6.6%
100% | 100% | 100% | 100% | 100% | 100% | 0.15% | 100% | 100% | 100% | 100% | 100% | 100% | 100% | 16% | 100% | 11% | 0.1% | 100% | 0.95% | C=CC(=O)Nc1ccc(CN(C(=O)Nc2c(Cl)c(OC)cc(OC)c2Cl)c2cc(Nc3ccc(N4CCN(C)CC4)cc3)ncn2)cc1 | kinase still bound, per cent of control (FGFR4 (human)): 0.1%; kinase still bound, per cent of control (MAP4K2 (human)): 100%; kinase still bound, per cent of control (ULK2 (human)): 100%; kinase still bound, per cent of control (RIPK4 (human)): 100%; kinase still bound, per cent of control (BLK (human)): 0.1%; kinase still bound, per cent of control (CHEK2 (human)): 100%; kinase still bound, per cent of control (LTK (human)): 27%; kinase still bound, per cent of control (YES1 (human)): 5.2%; kinase still bound, per cent of control (CDC2L2 (human)): 100%; kinase still bound, per cent of control (AKT2 (human)): 100%; kinase still bound, per cent of control (TIE1 (human)): 0%; kinase still bound, per cent of control (MAPK10 (human)): 100%; kinase still bound, per cent of control (RPS6KA5 KD2 (human)): 100%; kinase still bound, per cent of control (CSF1R (human)): 0%

Compound | kinase still bound, per cent of control (CAMK1D (human)) | kinase still bound, per cent of control (EPHB4 (human)) | kinase still bound, per cent of control (PRKD3 (human)) | kinase still bound, per cent of control (NEK7 (human)) | kinase still bound, per cent of control (ANKK1 (human)) | kinase still bound, per cent of control (DYRK1B (human)) | kinase still bound, per cent of control [1] | kinase still bound, per cent of control (CLK4 (human)) | kinase still bound, per cent of control (MAPK11 (human)) | kinase still bound, per cent of control (NUAK2 (human)) | kinase still bound, per cent of control (MAPK8 (human)) | kinase still bound, per cent of control (NTRK1 (human)) | kinase still bound, per cent of control (TESK1 (human)) | kinase still bound, per cent of control (AURKC (human)) | kinase still bound, per cent of control (ERBB2 (human)) | kinase still bound, per cent of control (MAP2K2 (human)) | kinase still bound, per cent of control (HCK (human)) | kinase still bound, per cent of control (STK10 (human)) | kinase still bound, per cent of control [2] | kinase still bound, per cent of control (TEK (human)) | further results
Cc1n[nH]c2ccc(-c3cncc(OC[C@@H](N)Cc4c[nH]c5ccccc45)c3)cc12 | 11% | 100% | 1.6% | 100% | 100% | 0% | 32% | 2.6% | 100% | 1.9% | 100% | 100% | 100% | 34% | 100% | 100% | 100% | 100% | 100% | 100% | kinase still bound, per cent of control (FGFR4 (human)): 100%; kinase still bound, per cent of control (MAP4K2 (human)): 8.8%; kinase still bound, per cent of control (ULK2 (human)): 12%; kinase still bound, per cent of control (RIPK4 (human)): 100%; kinase still bound, per cent of control (CHEK2 (human)): 100%; kinase still bound, per cent of control (LTK (human)): 100%; kinase still bound, per cent of control (YES1 (human)): 100%; kinase still bound, per cent of control (CDC2L2 (human)): 100%; kinase still bound, per cent of control (TIE1 (human)): 31%; kinase still bound, per cent of control (MAPK10 (human)): 25%; kinase still bound, per cent of control (RPS6KA5 KD2 (human)): 17%; kinase still bound, per cent of control (CSF1R (human)): 100%
